Assay results from ChEMBL document CHEMBL5352403, “Monoamine oxidase inhibitors: A concise review with special emphasis on structure activity relationship studies” (Eur J Med Chem, 2022).
One block for each molecule: values may come before it.

Experiments:
[1] = molecular target: T1, Amine oxidase [flavin-containing] B (Homo sapiens, UniProt P27338); test: Inhibition of recombinant human MAO-B using kynuramine as substrate incubated for 30 mins by spectrophotometric assay
T1 sequence (P27338 whole entry): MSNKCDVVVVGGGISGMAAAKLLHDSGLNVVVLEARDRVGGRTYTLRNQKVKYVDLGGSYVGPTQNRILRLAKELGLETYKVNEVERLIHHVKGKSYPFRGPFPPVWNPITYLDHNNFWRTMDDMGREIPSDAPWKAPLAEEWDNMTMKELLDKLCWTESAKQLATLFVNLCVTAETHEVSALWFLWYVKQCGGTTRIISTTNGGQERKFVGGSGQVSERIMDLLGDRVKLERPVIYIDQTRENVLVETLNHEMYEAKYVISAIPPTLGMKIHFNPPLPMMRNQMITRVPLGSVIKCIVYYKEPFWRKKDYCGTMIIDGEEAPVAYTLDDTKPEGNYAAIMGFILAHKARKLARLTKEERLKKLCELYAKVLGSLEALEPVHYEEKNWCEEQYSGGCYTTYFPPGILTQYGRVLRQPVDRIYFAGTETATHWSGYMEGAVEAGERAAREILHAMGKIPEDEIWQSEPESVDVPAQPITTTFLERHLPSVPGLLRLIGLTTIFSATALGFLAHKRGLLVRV

[2] = molecular target: T2, Amine oxidase [flavin-containing] A (Homo sapiens, UniProt P21397); test: Inhibition of recombinant human MAO-A using tyramine as substrate incubated for 60 mins by Ampliflu red reagent and horseradish peroxidase based fluorometric analysis
T2 sequence (P21397 whole entry): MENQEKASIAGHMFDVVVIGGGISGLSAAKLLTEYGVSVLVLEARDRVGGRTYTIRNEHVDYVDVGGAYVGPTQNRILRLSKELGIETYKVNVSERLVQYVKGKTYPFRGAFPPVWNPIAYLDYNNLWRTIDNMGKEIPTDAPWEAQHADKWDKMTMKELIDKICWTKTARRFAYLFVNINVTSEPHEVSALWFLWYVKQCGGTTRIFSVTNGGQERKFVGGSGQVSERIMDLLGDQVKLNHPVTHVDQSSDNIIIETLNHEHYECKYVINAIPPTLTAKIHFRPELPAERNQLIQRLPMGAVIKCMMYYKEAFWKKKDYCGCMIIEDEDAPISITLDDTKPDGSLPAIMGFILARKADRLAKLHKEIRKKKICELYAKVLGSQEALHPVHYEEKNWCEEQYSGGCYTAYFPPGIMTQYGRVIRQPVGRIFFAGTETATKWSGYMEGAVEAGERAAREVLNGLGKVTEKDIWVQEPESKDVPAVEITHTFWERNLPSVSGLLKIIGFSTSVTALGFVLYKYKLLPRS

[3] = molecular target: T1, Amine oxidase [flavin-containing] B; test: Inhibition of recombinant human MAO-B expressed in baculovirus infected BTI insect cells using p-tyramine as substrate incubated for 15 mins by Amplex Red reagent and horseradish peroxidase based fluorometric analysis
[4] = molecular target: T1, Amine oxidase [flavin-containing] B; test: Inhibition of recombinant human MAO-B using p-tyramine as substrate incubated for 15 mins by Amplex Red reagent and horseradish peroxidase based fluorometric analysis
[5] = Inhibition of goat liver MAO-B using p-tyramine as substrate incubated for 60 mins by spectrophotometric assay; assay type: tissue-based, Capra hircus
[6] = molecular target: T1, Amine oxidase [flavin-containing] B; test: Inhibition of human MAO-B using p-tyramine as substrate incubated for 10 mins by Amplex Red reagent and horseradish peroxidase based fluorescence analysis
[7] = molecular target: T1, Amine oxidase [flavin-containing] B; test: Inhibition of recombinant human MAO-B using kynuramine as substrate incubated for 20 mins by fluorescence based assay
[8] = molecular target: T2, Amine oxidase [flavin-containing] A; test: Inhibition of recombinant human MAO-A using kynuramine as substrate incubated for 20 mins by fluorescence based assay
[9] = molecular target: T2, Amine oxidase [flavin-containing] A; test: Inhibition of recombinant human MAO-A using p-tyramine as substrate incubated for 15 mins by Amplex Red reagent and horseradish peroxidase based fluorometric analysis
[10] = molecular target: T2, Amine oxidase [flavin-containing] A; test: Inhibition of recombinant human MAO-A using kynuramine as substrate incubated for 30 mins by spectrophotometric assay
[11] = molecular target: T3, Amine oxidase [flavin-containing] B (Rattus norvegicus, UniProt P19643); test: Inhibition of rat brain mitochondria MAO-B using benzylamine as substrate incubated for 30 mins by fluorescence microplate reader analysis
T3 sequence (P19643 whole entry): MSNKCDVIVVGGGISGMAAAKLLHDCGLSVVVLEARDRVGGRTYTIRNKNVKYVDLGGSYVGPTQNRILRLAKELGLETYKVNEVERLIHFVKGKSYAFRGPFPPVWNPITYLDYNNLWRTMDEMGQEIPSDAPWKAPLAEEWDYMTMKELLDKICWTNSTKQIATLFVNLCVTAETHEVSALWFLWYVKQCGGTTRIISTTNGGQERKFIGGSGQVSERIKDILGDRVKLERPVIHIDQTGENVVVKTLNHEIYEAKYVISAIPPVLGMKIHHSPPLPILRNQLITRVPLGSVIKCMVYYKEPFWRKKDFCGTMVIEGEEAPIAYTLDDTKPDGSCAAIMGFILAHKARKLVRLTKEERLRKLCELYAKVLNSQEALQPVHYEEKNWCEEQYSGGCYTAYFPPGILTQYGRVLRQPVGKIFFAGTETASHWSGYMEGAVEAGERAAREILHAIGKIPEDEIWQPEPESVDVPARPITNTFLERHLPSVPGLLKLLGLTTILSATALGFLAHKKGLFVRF

[12] = molecular target: T1, Amine oxidase [flavin-containing] B; test: Inhibition of recombinant human MAO-B using kynuramine as substrate incubated for 20 mins by spectramax fluorescence microplate reader analysis
[13] = molecular target: T1, Amine oxidase [flavin-containing] B; test: Inhibition of recombinant human MAO-B using kynuramine as substrate incubated for 20 mins by spectrophotometric assay
[14] = molecular target: T1, Amine oxidase [flavin-containing] B; test: Reversible inhibition of recombinant human MAO-B incubated for 30 mins by dilution assay
[15] = species on record: Homo sapiens; test: Selectivity index, ratio of IC50 for inhibition of recombinant human MAO-A to IC50 for inhibition of recombinant human MAO-B
[16] = molecular target: T2, Amine oxidase [flavin-containing] A; test: Inhibition of human MAO-A
[17] = molecular target: T3, Amine oxidase [flavin-containing] B; test: Inhibition of rat brain mitochondria MAO-B using p-tyramine as substrate incubated for 15 mins by Amplex Red reagent and horseradish peroxidase based fluorometric analysis
[18] = molecular target: T1, Amine oxidase [flavin-containing] B; test: Inhibition of human MAO-B using p-tyramine as substrate incubated for 15 mins by horseradish peroxidase based fluorescence microplate reader analysis
[19] = molecular target: T2, Amine oxidase [flavin-containing] A; test: Competitive inhibition of recombinant human MAO-A using tyramine hydrochloride as substrate by Ampliflu red reagent and horseradish peroxidase based fluorescence microplate reader analysis
[20] = molecular target: T1, Amine oxidase [flavin-containing] B; test: Inhibition of recombinant human MAO-B using p-tyramine as substrate incubated for 60 mins by Amplex Red reagent and horseradish peroxidase based fluorescence microplate reader analysis
[21] = molecular target: T2, Amine oxidase [flavin-containing] A; test: Inhibition of recombinant human MAO-A assessed as inhibition constant by Lineweaver-Burk plot analysis
[22] = molecular target: T1, Amine oxidase [flavin-containing] B; test: Inhibition of recombinant human MAO-B using p-tyramine as substrate incubated for 45 mins by Amplex Red reagent and horseradish peroxidase based fluorescence microplate reader analysis
[23] = molecular target: T1, Amine oxidase [flavin-containing] B; test: Inhibition of recombinant human MAO-B using benzylamine as substrate incubated for 15 mins by spectrophotometric assay
[24] = molecular target: T1, Amine oxidase [flavin-containing] B; test: Inhibition of MAO-B (unknown origin) using p-tyramine as substrate incubated for 60 mins by Ampliflu red reagent and horseradish peroxidase based fluorometric analysis

- IC50 [1]: 10 nM
SMILES: C#CCN(C)c1ccc(/C=C/c2cnc(C)c3c2COC(C)(C)O3)cc1

- IC50 [2]: 28 nM
SMILES: Cc1cc(=O)c(O)c(CO)n1CCCn1cc(COc2ccc3ccc(=O)oc3c2)nn1

- IC50 [3]: 200 nM
SMILES: Cc1cccc(NC(=S)N2N=C(c3ccc(O)cc3)CC2c2cccs2)c1 (stereo not given)

- IC50 [4]: 4 nM
SMILES: COc1ccc(-c2cc3cc(Cl)ccc3oc2=O)cc1

- IC50 [5]: 600 nM
SMILES: OCC/N=C/c1cn(-c2ccccc2)nc1-c1ccc(Cl)cc1

- IC50 [6]: 60 nM
SMILES: O=c1oc2cc(Br)ccc2cc1-c1ccc(Br)nn1

- IC50 [4]: 1 nM
SMILES: COc1cccc(-c2cc3cc(Cl)ccc3oc2=O)c1

- IC50 [7]: 20 nM
- IC50 [8]: 47 nM
SMILES: CCOC(=O)C(C(=O)N/N=C/c1ccc([N+](=O)[O-])cc1)[n+]1ccc2ccccc2c1 (stereo not given)

- IC50 [9]: 55.5 µM
SMILES: O=c1oc2ccc(Cl)cc2c(O)c1-c1ccccc1O

- IC50 [10]: 29 nM
- IC50 [11]: 212 nM
SMILES: CCc1ccc(/C=C/C(=O)c2ccc3c(c2)OCO3)cc1

- IC50 [12]: 17 nM
SMILES: O=C(NNc1nc2ccccc2nc1Cc1ccccc1)c1ccc(O)cc1

- IC50 [11]: 212 nM
SMILES: C/C(=N\NC(=O)Nc1ncc([N+](=O)[O-])s1)c1ccc(Br)cc1

- IC50 [13]: 638 nM
SMILES: O=C1Oc2ccccc2C(=O)/C1=C\NCc1ccccc1

- IC50 [4]: 0.37 nM
- IC50 [14]: 4 nM
SMILES: O=C1CCc2ccc(OCc3ccccc3F)cc2O1

SMILES: O=C(c1ccccc1)N1CCN(c2ccccc2)CC1
- Ratio IC50 [15]: > 122

- IC50 [16]: 128 nM
SMILES: CCCCNc1nnc(SCC(=O)Nc2nc3ccc([N+](=O)[O-])cc3s2)s1

- IC50 [17]: 5 nM
- IC50 [18]: 680 nM
SMILES: Cc1cc(=O)c(O)c(CO)n1CCCn1cc(COc2cc3ccccc3oc2=O)nn1

- IC50 [19]: 95 nM
SMILES: O=[N+]([O-])c1ccc(-c2csc(N/N=C(/CSc3nc4ccccc4s3)c3ccccc3)n2)cc1

- IC50 [1]: 10 nM
SMILES: Cc1ncc(/C=C/c2ccc(O)cc2)c2c1OC(C)(C)OC2

- IC50 [20]: 53 nM
SMILES: CCOc1ccccc1N1CCN(c2ccc(-c3nc4cc(C)ccc4[nH]3)cc2)CC1

- IC50 [17]: 5 nM
- Ki [21]: 850 nM
SMILES: Cc1ccc(/C=N/NC(=O)c2cc(-c3ccccc3)on2)cc1

- IC50 [5]: 380 nM
SMILES: OCC/N=C/c1cn(-c2ccccc2)nc1-c1ccc(F)cc1

- IC50 [5]: 340 nM
SMILES: CC1CCCCN1c1ccc(/C=N/Nc2ccccc2)cc1 (stereo not given)

- IC50 [22]: 80 nM
SMILES: O=C(/C=C/c1ccc(C(F)(F)F)cc1)c1ccc[nH]1

- IC50 [2]: 28 nM
SMILES: CN1CCN(c2ccc(/C=N/Nc3ccccc3)cc2)CC1

- IC50 [23]: 650 nM
SMILES: CSc1ccc(C(=O)/C=C/c2cccc3c2OCO3)cc1

- IC50 [7]: 20 nM
- IC50 [8]: 47 nM
- IC50 [16]: 107 nM
SMILES: O=C(/C=C/c1ccc(Cl)cc1)c1ccc2c(c1)OCO2

- IC50 [24]: 49 nM
SMILES: O=C(/C=C(O)/C=C/c1ccccc1)c1ccccc1O
